Numbered stars: 1 amine (or outer) side, 2 acyl side, 3 side chain; on linkers, the order of the positions; unused ones are H or OH. Peptide text beside a SMILES is read from it. * marks the point of attachment. C22 diacid = O=C(O)CCCCCCCCCCCCCCCCCCCCC(=O)*; C20 diacid = O=C(O)CCCCCCCCCCCCCCCCCCC(=O)*; C18 diacid = O=C(O)CCCCCCCCCCCCCCCCC(=O)*; γGlu = O=C(O)[C@H](CCC(=O)[*:2])N[*:1]; Trx = NC[C@H]1CC[C@H](C(=O)O)CC1; AEEA = NCCOCCOCC(=O)O

The nature of series [1]: Heat accelerated stability assay of polypeptide solutions (40° C., pH about 7.4), reversed phase chromatography. The series is classed as physicochemical. Particulars: 40° C.; for Concentration change on 7 d / Concentration change on 26 d: pH about 7.4, 1 mg/mL; for Concentration change on 7 d / Purity change on 7 d: Day 7; for Concentration change on 26 d / Purity change on 26 d: Day 26; for Purity change on 7 d / Purity change on 26 d: reversed phase chromatography 214 nm; for Purity change on 7 d: purity on 7 d − purity on 0 d; for Purity change on 26 d: purity on 26 d − purity on 0 d. The protocol:
A stability test chamber (BINDER GmbH), a 0.01 mg-readability balance (METTLER TOLEDO), a pH meter (METTLER TOLEDO), a biosafety cabinet (ESCO), T2G-II small-sized motor-driven capping machine (Changsha zhongya pharmaceutical equipment co. LTD), a high-speed refrigerated centrifuge (Eppendorf), a sterilizer cabinet (Shinva Medical), Agilent 1260 high-performance liquid chromatographer, and Sepax Bio-C18 4.6*250 mm 3 μm 200 Å reversed phase column were used.
Reagents and consumables included: ultrapure water (18.2 MΩ, self-made), acetonitrile (HPLC grade), trifluoroacetic acid (HPLC grade), sodium dihydrogen phosphate (pharmaceutical grade, Hunan Jiudian Hongyang Pharmaceutical Co., Ltd), hydrochloric acid (pharmaceutical grade, Hunan Er-Kang Pharmaceutical Co., Ltd), sodium hydroxide (Analytical Reagent grade, Hushi®, Sinopharm Chemical Reagent Co., Ltd), vials, rubber stoppers, disposable syringes, and sterile filters.
The lyophilized powder (1 mg/mL) of the polypeptide derivative prepared in accordance with the method of Example 1 was mixed with sodium dihydrogen phosphate (1.42 mg/mL) and dissolved in ultrapure water in the indicated mass-volume ratios. After adjusting pH to about 7.4 with hydrochloric acid/sodium hydroxide, the solution was filtered into a sterilized vial in a clean bench using a 0.22 μm sterile filter. The vial was then capped and placed into the stability test chamber at 40° C. Detections were made on Days 7 (7d) and 26 (26d), and during the assay, changes in the characteristics and properties of the polypeptide were observed and recorded. The sample was then centrifuged for 3 min at 10,000 rpm at 4° C., and the supernatant was transferred to a liquid phase sample vial for detecting the concentration and purity of the polypeptides using liquid phase chromatography described as below, wherein the concentration of the polypeptide=peak area/injection volume/extinction coefficient/60×flow rate, and the purity of the polypeptide=target peak area/total peak area×100%.
Conditions of the reversed phase chromatography Flow rate: 1.0 ml/min; Autosampler temperature: 15° C.; Column temperature: 25° C.; Detection wavelengths: 280 nm and 214 nm; Mobile phase A: 100% H2O+0.05% TFA; Mobile phase B: 100% ACN; and Gradient of elution listed in Table 6: […]

Another series deals with T1, amylin receptor (hAMY3R) (Homo sapiens, UniProt O60896+P30988).
T1 construct: host or cells: CHO-K1/Ga15/AMY3 cells, further stably transfected with a CRE-luciferase plasmid
T1 sequence (P30988 25-474): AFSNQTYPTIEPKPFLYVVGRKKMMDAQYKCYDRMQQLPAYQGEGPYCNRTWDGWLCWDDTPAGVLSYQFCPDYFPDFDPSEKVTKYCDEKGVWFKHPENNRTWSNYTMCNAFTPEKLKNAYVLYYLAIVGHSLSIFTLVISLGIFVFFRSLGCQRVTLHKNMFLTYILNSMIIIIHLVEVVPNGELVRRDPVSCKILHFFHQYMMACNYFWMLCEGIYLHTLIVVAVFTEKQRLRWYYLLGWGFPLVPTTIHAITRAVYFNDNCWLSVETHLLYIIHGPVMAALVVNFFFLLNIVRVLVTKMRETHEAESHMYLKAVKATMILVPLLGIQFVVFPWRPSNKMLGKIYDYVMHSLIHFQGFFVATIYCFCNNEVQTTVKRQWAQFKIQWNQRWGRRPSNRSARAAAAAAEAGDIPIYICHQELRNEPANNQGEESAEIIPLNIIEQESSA
T1 sequence (O60896 24-148): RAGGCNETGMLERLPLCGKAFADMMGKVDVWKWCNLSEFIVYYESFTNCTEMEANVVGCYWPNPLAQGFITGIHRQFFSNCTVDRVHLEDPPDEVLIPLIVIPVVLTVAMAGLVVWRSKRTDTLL
The series is described as follows: Amylin receptor agonism testing, CRE-luciferase assay in stably transfected CHO-K1/Ga15/AMY3 cells. The series is classed as cell-based. Conditions: relative to D1 as benchmark.

For series [2], the target named is T2, calcitonin receptor (hCTR) (Homo sapiens, UniProt P30988).
T2 construct: host or cells: CHO-K1/CALCR/Ga15 cells, further stably transfected with a CRE-luciferase plasmid
T2 sequence (P30988 25-474): T1 sequence (P30988 25-474)
The series is described as follows: Calcitonin receptor agonism, CRE-luciferase assay in stably transfected CHO-K1/CALCR/Ga15 cells. The series is classed as cell-based. Conditions: for Fold change in activity against hCTR: relative to D1 as benchmark; for EC50: incubation of 24 hours, Table 4, read-out: EC50, activity against the calcitonin receptor in cells.

On to `CC(C)C[C@H](NC(=O)[C@H](CCCNC(=N)N)NC(=O)CNC(=O)[C@H](CC(C)C)NC(=O)[C@@H](NC(=O)[C@H](C)NC(=O)[C@@H](NC(=O)[C@H](CO)NC(=O)[C@H](CC(C)C)NC(=O)[C@H](CCC(N)=O)NC(=O)[C@H](CO)NC(=O)[C@H](C)NC(=O)[C@H]1CC[C@H](CNC(=O)CCCCCCCCCCCCCCCCCCC(=O)O)CC1)[C@@H](C)O)C(C)C)C(=O)N[C@@H](CO)C(=O)N[C@@H](CC(=O)O)C(=O)N[C@@H](CCC(=O)O)C(=O)N[C@@H](CC(C)C)C(=O)N[C@@H](Cc1c[nH]cn1)C(=O)N[C@@H](CCCNC(=N)N)C(=O)N[C@@H](CC(C)C)C(=O)N[C@@H](CCC(N)=O)C(=O)N[C@@H](CC(=O)O)C(=O)N[C@@H](Cc1ccc(O)cc1)C(=O)N1CCC[C@H]1C(=O)N[C@@H](CCCNC(=N)N)C(=O)N[C@H](C(=O)N[C@@H](CC(=O)O)C(=O)N[C@H](C(=O)NCC(=O)N[C@@H](CO)C(=O)NCC(=O)N[C@@H](CO)C(=O)N1CCC[C@H]1C(N)=O)C(C)C)[C@@H](C)O` [M14] ({C20 diacid-Trx}-ASQLSTAVLGRLSDELHRLQDYPRTDVGSGSP-NH2), for which, in series [1], the “Concentration change on 7 d” value was −3.464%, the “Concentration change on 26 d” value is given as −8.377%, the “Purity change on 7 d” value is listed as “No change” and the “Purity change on 26 d” value was −1.77%. Also, the “Fold change in activity against hAMY3R” value at amylin receptor (hAMY3R) is given as 0.079. Moreover, in series [2], the “Fold change in activity against hCTR” value is reported as 0.147.
In the case of `CC(C)C[C@H](NC(=O)[C@H](CCCNC(=N)N)NC(=O)CNC(=O)[C@H](CC(C)C)NC(=O)[C@@H](NC(=O)[C@H](C)NC(=O)[C@@H](NC(=O)[C@H](CO)NC(=O)[C@H](CC(C)C)NC(=O)[C@H](CCC(N)=O)NC(=O)[C@H](CO)NC(=O)[C@H](C)NC(=O)COCCOCCNC(=O)COCCOCCNC(=O)[C@H]1CC[C@H](CNC(=O)CCCCCCCCCCCCCCCCC(=O)O)CC1)[C@@H](C)O)C(C)C)C(=O)N[C@@H](CO)C(=O)N[C@@H](CC(=O)O)C(=O)N[C@@H](CCC(=O)O)C(=O)N[C@@H](CC(C)C)C(=O)N[C@@H](Cc1c[nH]cn1)C(=O)N[C@@H](CCCNC(=N)N)C(=O)N[C@@H](CC(C)C)C(=O)N[C@@H](CCC(N)=O)C(=O)N[C@@H](CC(=O)O)C(=O)N[C@@H](Cc1ccc(O)cc1)C(=O)N1CCC[C@H]1C(=O)N[C@@H](CCCNC(=N)N)C(=O)N[C@H](C(=O)N[C@@H](CC(=O)O)C(=O)N[C@H](C(=O)NCC(=O)N[C@@H](CO)C(=O)NCC(=O)N[C@@H](CO)C(=O)N1CCC[C@H]1C(N)=O)C(C)C)[C@@H](C)O` [M28] ({C18 diacid-Trx-AEEA-AEEA}-ASQLSTAVLGRLSDELHRLQDYPRTDVGSGSP-NH2), the “Fold change in activity against hAMY3R” value at amylin receptor (hAMY3R) amounted to 18.000. Further, in series [2], the “Fold change in activity against hCTR” value is recorded as 0.966.
`CC(C)C[C@H](NC(=O)[C@H](CCCNC(=N)N)NC(=O)CNC(=O)[C@H](CC(C)C)NC(=O)[C@@H](NC(=O)[C@H](C)NC(=O)[C@@H](NC(=O)[C@H](CO)NC(=O)[C@H](CC(C)C)NC(=O)[C@H](CCC(N)=O)NC(=O)[C@H](CO)NC(=O)[C@H](C)NC(=O)CC[C@H](NC(=O)CCCCCCCCCCCCCCCCC(=O)O)C(=O)O)[C@@H](C)O)C(C)C)C(=O)N[C@@H](CO)C(=O)N[C@@H](CC(=O)O)C(=O)N[C@@H](CCC(=O)O)C(=O)N[C@@H](CC(C)C)C(=O)N[C@@H](Cc1c[nH]cn1)C(=O)N[C@@H](CCCNC(=N)N)C(=O)N[C@@H](CC(C)C)C(=O)N[C@@H](CCC(N)=O)C(=O)N[C@@H](CC(=O)O)C(=O)N[C@@H](Cc1ccc(O)cc1)C(=O)N1CCC[C@H]1C(=O)N[C@@H](CCCNC(=N)N)C(=O)N[C@H](C(=O)N[C@@H](CC(=O)O)C(=O)N[C@H](C(=O)NCC(=O)N[C@@H](CO)C(=O)NCC(=O)N[C@@H](CO)C(=O)N1CCC[C@H]1C(N)=O)C(C)C)[C@@H](C)O` [M8] ({C18 diacid-γGlu}-ASQLSTAVLGRLSDELHRLQDYPRTDVGSGSP-NH2): in series [1], the “Concentration change on 7 d” value is recorded as “No change (concentration change of less than 1% (denoted as “no change”))”, the “Concentration change on 26 d” value is −6.190%, the “Purity change on 7 d” value was “No change” and the “Purity change on 26 d” value is recorded as −3.3%. Further, in series [2], the EC50 (as a rule, the midpoint of the concentration-response curve) was 0.165 nM.
Consider `CC(C)C[C@H](NC(=O)[C@H](CCCNC(=N)N)NC(=O)CNC(=O)[C@H](CC(C)C)NC(=O)[C@@H](NC(=O)[C@H](C)NC(=O)[C@@H](NC(=O)[C@H](CO)NC(=O)[C@H](CC(C)C)NC(=O)[C@H](CCC(N)=O)NC(=O)[C@H](CO)NC(=O)[C@H](C)NC(=O)CC[C@H](NC(=O)CCCCCCCCCCCCCCCCCCCCC(=O)O)C(=O)O)[C@@H](C)O)C(C)C)C(=O)N[C@@H](CO)C(=O)N[C@@H](CC(=O)O)C(=O)N[C@@H](CCC(=O)O)C(=O)N[C@@H](CC(C)C)C(=O)N[C@@H](Cc1c[nH]cn1)C(=O)N[C@@H](CCCNC(=N)N)C(=O)N[C@@H](CC(C)C)C(=O)N[C@@H](CCC(N)=O)C(=O)N[C@@H](CC(=O)O)C(=O)N[C@@H](Cc1ccc(O)cc1)C(=O)N1CCC[C@H]1C(=O)N[C@@H](CCCNC(=N)N)C(=O)N[C@H](C(=O)N[C@@H](CC(=O)O)C(=O)N[C@H](C(=O)NCC(=O)N[C@@H](CO)C(=O)NCC(=O)N[C@@H](CO)C(=O)N1CCC[C@H]1C(N)=O)C(C)C)[C@@H](C)O` [M7] ({C22 diacid-γGlu}-ASQLSTAVLGRLSDELHRLQDYPRTDVGSGSP-NH2), for which, in series [1], the “Concentration change on 7 d” value was “No change (concentration change of less than 1% (denoted as “no change”))”, the “Concentration change on 26 d” value is on record as “No change (concentration change of less than 1% (denoted as “no change”))”, the “Purity change on 7 d” value is listed as “No change” and the “Purity change on 26 d” value is recorded as “nearly no noticeable change in purity”. Further, in series [2], the EC50 was 0.194 nM.
Take `CC(C)C[C@H](NC(=O)[C@H](CCCNC(=N)N)NC(=O)CNC(=O)[C@H](CC(C)C)NC(=O)[C@@H](NC(=O)[C@H](C)NC(=O)[C@@H](NC(=O)[C@H](CO)NC(=O)[C@H](CC(C)C)NC(=O)[C@H](CCC(N)=O)NC(=O)[C@H](CO)NC(=O)[C@H](C)NC(=O)[C@H](CC(=O)O)NC(=O)CCCCCCCCCCCCCCCCC(=O)O)[C@@H](C)O)C(C)C)C(=O)N[C@@H](CO)C(=O)N[C@@H](CC(=O)O)C(=O)N[C@@H](CCC(=O)O)C(=O)N[C@@H](CC(C)C)C(=O)N[C@@H](Cc1c[nH]cn1)C(=O)N[C@@H](CCCNC(=N)N)C(=O)N[C@@H](CC(C)C)C(=O)N[C@@H](CCC(N)=O)C(=O)N[C@@H](CC(=O)O)C(=O)N[C@@H](Cc1ccc(O)cc1)C(=O)N1CCC[C@H]1C(=O)N[C@@H](CCCNC(=N)N)C(=O)N[C@H](C(=O)N[C@@H](CC(=O)O)C(=O)N[C@H](C(=O)NCC(=O)N[C@@H](CO)C(=O)NCC(=O)N[C@@H](CO)C(=O)N1CCC[C@H]1C(N)=O)C(C)C)[C@@H](C)O` [M13] ({C18 diacid}-DASQLSTAVLGRLSDELHRLQDYPRTDVGSGSP-NH2): in series [1], the “Concentration change on 7 d” value is −1.895%, the “Concentration change on 26 d” value was −5.520%, the “Purity change on 7 d” value is −1.15% and the “Purity change on 26 d” value is given as −3.76%. Moreover, in series [2], the EC50 is 0.085 nM.

Values taken from patent US20260265305A1, “POLYPEPTIDE DERIVATIVE FOR ORAL DELIVERY” (Hangzhou Sciwind Biosciences Co., Ltd., priority 2023, published 2026).
